Assay results reported in ChEMBL document CHEMBL1201862, “PubChem BioAssay data set” (2004).
Calls of active or inactive are those of the source.

Key:
[1] = target: T1, Fatty acid synthase (Homo sapiens, UniProt P49327); assay: FAS thioesterase domain inhibitors, dose response, biochemical, kinetic fluorescence intensity (AID 624326); format: functional;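 note: rate of fluorescence rise from hydrolysis of a fluorogenic O-methyl fluorescein ester substrate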
[2] = target: T1, Fatty acid synthase; assay: FAS thioesterase domain inhibitors, dose response, biochemical, endpoint fluorescence intensity, uHTS hits (AID 624327); format: functional;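 note: fluorescence from hydrolysis of an O-methyl fluorescein acyl ester substrate by the enzyme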
[3] = target: T2, Estrogen receptor beta (Homo sapiens, UniProt Q92731); assay: ERβ–SRC-3 coactivator interaction inhibitors, confirmation, orthogonal assay, biochemical, ELISA, streptavidin-HRP readout (AID 1060)
T2 sequence (Q92731 whole entry): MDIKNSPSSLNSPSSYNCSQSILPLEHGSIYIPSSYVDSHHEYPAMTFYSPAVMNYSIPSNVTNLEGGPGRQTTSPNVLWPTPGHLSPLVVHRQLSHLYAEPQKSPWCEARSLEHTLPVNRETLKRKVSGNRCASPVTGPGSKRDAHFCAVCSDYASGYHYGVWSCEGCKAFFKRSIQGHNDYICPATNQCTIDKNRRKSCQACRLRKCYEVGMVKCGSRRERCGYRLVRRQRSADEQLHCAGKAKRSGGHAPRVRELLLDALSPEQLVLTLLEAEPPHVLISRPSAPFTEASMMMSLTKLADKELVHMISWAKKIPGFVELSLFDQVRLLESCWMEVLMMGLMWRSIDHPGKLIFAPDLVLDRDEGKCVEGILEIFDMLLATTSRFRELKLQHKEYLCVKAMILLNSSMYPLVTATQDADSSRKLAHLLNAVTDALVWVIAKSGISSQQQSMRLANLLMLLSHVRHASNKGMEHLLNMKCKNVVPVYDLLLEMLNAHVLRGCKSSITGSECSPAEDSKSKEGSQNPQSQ

[4] = target: T2, Estrogen receptor beta
[5] = target: T3, Mannose-6-phosphate isomerase (Homo sapiens, UniProt P34949); assay: human PMI inhibitors, high substrate, primary screen, biochemical, fluorescence intensity, high mannose 6-phosphate (AID 1220)
T3 sequence (P34949 whole entry): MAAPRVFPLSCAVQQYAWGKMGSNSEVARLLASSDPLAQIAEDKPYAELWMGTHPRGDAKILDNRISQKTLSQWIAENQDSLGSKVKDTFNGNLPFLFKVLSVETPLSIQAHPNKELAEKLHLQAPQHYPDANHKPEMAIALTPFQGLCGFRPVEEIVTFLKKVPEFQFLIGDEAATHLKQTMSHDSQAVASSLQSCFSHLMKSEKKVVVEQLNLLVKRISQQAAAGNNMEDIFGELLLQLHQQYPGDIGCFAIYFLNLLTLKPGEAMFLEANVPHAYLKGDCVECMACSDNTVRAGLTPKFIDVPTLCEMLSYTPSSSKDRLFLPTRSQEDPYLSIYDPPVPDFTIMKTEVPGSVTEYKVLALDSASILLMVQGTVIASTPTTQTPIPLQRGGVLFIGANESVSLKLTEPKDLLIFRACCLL

[6] = target: T4, Replicative DNA helicase DnaB (Mycobacterium tuberculosis, UniProt P9WMR3); assay: DnaB intein splicing inhibitors, dose response, biochemical, cell-free fluorescence (AID 449749); format: functional
T4 sequence (P9WMR3 whole entry): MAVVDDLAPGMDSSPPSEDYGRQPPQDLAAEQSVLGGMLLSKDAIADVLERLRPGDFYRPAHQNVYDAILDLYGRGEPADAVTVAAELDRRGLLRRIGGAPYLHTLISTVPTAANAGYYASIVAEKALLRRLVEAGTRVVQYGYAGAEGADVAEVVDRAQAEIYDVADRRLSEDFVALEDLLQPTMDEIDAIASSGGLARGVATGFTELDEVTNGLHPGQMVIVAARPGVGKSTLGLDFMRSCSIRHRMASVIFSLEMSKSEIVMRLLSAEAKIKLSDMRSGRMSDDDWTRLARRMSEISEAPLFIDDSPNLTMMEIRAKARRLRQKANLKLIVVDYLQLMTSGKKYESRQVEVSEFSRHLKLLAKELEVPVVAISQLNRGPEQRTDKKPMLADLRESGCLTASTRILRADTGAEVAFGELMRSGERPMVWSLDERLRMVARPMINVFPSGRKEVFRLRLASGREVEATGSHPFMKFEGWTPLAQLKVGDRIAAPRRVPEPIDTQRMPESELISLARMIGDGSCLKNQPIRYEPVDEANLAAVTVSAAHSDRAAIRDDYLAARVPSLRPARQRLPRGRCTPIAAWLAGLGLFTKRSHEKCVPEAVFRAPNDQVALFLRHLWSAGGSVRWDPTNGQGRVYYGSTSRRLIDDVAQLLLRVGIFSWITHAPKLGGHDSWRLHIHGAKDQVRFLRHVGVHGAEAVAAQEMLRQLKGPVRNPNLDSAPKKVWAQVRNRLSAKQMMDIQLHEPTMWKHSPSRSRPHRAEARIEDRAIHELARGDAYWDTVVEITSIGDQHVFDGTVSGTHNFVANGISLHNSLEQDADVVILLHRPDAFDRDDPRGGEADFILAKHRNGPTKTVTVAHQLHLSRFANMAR

[7] = target: T5, Protein RecA (Mycobacterium tuberculosis, UniProt P9WHJ3); assay: Fluorescence Cell-Free Homogeneous Dose Retest to Identify Inhibitors of RecA-Intein Splicing Activity. [Related pubchem assays (depositor defined):AID2097, AID2223, AID489010, AID492950]; format: functional
T5 sequence (P9WHJ3 whole entry): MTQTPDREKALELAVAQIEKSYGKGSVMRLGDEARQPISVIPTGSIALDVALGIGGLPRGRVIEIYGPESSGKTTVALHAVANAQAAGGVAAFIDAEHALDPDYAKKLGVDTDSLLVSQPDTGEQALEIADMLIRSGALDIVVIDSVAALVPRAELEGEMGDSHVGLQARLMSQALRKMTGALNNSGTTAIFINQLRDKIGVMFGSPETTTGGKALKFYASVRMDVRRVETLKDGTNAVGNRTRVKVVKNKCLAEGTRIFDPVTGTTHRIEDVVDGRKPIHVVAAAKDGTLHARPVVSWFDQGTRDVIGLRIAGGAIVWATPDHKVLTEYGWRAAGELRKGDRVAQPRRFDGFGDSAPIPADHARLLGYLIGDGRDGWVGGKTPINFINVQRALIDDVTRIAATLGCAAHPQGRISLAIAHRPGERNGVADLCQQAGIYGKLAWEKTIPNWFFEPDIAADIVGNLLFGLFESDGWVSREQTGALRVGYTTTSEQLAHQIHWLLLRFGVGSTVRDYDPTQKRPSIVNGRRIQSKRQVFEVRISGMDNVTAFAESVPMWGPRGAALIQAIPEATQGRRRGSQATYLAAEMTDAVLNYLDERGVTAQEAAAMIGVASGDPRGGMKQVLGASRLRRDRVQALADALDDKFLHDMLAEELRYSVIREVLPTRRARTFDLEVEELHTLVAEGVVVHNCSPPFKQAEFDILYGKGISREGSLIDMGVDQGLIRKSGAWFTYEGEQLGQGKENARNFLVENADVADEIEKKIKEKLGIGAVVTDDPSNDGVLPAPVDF

[8] = target: Beta-galactosidase (Escherichia coli, UniProt Q8VNN2); assay: Dose response counterscreen for EBI2 assay utilizing the enzyme, b-galactosidase.; format: functional
Sequence of Beta-galactosidase (Q8VNN2 whole entry): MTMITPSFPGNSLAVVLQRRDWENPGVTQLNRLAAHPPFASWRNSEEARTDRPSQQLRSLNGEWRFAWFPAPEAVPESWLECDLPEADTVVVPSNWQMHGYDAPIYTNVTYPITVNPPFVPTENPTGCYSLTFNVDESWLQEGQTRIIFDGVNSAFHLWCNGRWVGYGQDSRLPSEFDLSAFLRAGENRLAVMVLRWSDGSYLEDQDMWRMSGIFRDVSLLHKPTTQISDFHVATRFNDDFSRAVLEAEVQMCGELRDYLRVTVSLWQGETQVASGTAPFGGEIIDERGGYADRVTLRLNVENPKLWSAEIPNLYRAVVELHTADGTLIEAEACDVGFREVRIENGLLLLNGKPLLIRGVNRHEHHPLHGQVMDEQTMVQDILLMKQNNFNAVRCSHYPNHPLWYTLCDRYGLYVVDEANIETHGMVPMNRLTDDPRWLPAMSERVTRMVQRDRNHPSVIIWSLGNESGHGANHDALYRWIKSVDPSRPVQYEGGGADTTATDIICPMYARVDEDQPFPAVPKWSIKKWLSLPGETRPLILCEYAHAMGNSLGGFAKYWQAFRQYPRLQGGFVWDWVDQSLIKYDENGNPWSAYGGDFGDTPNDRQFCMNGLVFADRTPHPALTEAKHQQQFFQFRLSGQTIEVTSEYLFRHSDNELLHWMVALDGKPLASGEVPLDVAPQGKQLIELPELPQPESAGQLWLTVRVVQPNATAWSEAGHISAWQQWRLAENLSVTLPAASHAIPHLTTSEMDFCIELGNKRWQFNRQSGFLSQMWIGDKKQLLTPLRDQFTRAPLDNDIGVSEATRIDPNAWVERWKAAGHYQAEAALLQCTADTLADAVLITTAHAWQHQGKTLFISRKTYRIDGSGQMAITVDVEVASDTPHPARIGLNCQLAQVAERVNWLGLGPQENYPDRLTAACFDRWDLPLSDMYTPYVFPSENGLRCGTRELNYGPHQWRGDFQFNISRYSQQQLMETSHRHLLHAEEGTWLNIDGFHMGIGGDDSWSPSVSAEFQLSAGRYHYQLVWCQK

[9] = THP-1 cell cytotoxicity, dose response, cytotoxicity control for non-replicating M. tuberculosis project (AID 489025); format: functional
[10] = cells; format: functional
[11] = target: T6, Ubiquitin-conjugating enzyme E2 N (Homo sapiens, UniProt P61088); format: functional;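 note: Dose-response confirmation in a TR-FRET assay detecting UBC13-driven polyubiquitin chain formation, inhibition measured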
T6 sequence (P61088 whole entry): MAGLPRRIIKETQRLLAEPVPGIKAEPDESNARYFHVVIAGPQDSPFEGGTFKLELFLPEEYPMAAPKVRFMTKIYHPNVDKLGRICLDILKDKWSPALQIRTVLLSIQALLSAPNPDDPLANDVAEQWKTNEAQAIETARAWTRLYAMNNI

[12] = target: Protein Wnt-3a (Mus musculus, UniProt P27467); assay: Wnt3a-driven reporter signaling inhibition, dose response, selectivity assay for Gli-SUFU antagonist project, Wnt-LIGHT cells, luminescence (AID 651570); format: functional; conditions: read-out: IC50_Mean;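 note: Wnt-LIGHT reporter cells stimulated with conditioned medium from Wnt3a-producing cells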
Sequence of Protein Wnt-3a (P27467 whole entry): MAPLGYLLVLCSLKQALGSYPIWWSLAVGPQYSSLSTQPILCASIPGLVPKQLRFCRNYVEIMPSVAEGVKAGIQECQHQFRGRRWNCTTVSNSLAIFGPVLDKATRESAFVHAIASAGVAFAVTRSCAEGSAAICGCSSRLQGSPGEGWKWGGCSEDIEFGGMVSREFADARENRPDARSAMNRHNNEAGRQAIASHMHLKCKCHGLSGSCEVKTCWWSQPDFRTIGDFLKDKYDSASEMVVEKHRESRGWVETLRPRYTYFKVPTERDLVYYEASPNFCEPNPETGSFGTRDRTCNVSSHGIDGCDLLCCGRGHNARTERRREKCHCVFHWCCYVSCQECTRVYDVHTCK

[13] = intracellular Trypanosoma cruzi inhibitors in host cells – cell-based, plate reader, cherry-pick samples, set 3, dose response (AID 651818); format: functional;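 note: compounds incubated with infected cells for about four days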
[14] = target: T7, Leucine aminopeptidase (Plasmodium falciparum 3D7, UniProt Q8IL11); assay: P. falciparum M17LAP inhibitors, primary screen, biochemical, fluorogenic H-Leu-NHMec substrate, 1536-well (AID 1619); format: functional
T7 sequence (Q8IL11 whole entry): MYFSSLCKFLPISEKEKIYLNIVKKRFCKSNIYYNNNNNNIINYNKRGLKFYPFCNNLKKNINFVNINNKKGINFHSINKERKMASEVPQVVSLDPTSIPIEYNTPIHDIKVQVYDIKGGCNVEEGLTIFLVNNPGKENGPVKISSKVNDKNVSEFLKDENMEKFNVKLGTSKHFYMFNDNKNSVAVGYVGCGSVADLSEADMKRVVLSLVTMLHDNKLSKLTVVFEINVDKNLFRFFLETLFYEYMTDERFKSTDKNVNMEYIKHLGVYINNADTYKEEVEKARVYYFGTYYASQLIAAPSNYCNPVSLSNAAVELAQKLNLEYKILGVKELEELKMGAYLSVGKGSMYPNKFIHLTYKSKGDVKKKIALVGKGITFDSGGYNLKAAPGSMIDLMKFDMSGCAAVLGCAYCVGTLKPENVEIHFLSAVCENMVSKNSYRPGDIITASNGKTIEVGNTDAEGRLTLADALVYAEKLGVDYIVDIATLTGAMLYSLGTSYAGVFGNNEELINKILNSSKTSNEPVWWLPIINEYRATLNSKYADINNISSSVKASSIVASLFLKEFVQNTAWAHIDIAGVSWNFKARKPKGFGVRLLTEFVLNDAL

[15] = ZM109 Env clade C HIV-1 fusion inhibitors, dose response, HeLa effector, CEM target cells, luciferase, cherry-pick (AID 652058); format: functional, cell-based
[16] = inhibitors of clade B AD8 Env fusion, dose response, cell-based, cherry-pick (AID 652062); format: functional;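 note: luciferase signal from cell-cell fusion driven by HIV-1 clade B AD8 Env; potency is for inhibitors of fusion seen as a drop in luminescence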
[17] = inhibitors of HIV Env-driven cell fusion, dose response, cherry-pick (AID 652057); format: functional, cell-based
[18] = target: T8, Polyadenylate-binding protein 1 (Homo sapiens, UniProt P11940); assay: PABP1 MLLE–PAM2 binding inhibitor potency, dose response, biochemical, fluorescence polarization, FITC-PAM2 peptide (AID 602259); format: functional; conditions: read-out: IC50_Mean
T8 sequence (P11940 whole entry): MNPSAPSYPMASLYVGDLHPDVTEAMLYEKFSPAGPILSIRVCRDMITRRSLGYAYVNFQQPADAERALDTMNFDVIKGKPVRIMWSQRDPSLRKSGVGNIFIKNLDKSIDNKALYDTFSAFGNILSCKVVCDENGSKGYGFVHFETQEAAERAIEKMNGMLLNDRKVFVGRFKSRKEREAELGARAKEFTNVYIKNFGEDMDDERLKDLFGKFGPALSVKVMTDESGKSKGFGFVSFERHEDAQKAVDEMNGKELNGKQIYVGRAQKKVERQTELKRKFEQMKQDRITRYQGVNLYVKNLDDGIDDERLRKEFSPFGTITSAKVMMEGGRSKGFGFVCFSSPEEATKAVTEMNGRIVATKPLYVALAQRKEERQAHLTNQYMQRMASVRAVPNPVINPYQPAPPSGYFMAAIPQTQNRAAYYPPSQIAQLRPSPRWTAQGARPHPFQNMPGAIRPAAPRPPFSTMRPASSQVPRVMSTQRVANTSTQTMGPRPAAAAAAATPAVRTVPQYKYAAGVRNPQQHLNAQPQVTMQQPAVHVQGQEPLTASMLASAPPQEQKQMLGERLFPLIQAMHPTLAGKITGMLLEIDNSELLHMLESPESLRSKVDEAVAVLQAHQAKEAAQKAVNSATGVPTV

[19] = target: T8, Polyadenylate-binding protein 1; assay: PABP1 MLLE–PAM2 interaction inhibitors, dose response, miRNA deadenylation inhibitor project, biochemical, fluorescence polarization, Cy5-PAM2 peptide, secondary (AID 602260); format: functional; conditions: read-out: IC50_Mean
[20] = test system: Vero; assay: Vero cell cytotoxicity, cytotoxicity control for flavivirus capping enzyme inhibitors (AID 588742); format: functional; conditions: Chlorocebus sabaeus

T1 sequence (P49327 whole entry, the tested form may be a part): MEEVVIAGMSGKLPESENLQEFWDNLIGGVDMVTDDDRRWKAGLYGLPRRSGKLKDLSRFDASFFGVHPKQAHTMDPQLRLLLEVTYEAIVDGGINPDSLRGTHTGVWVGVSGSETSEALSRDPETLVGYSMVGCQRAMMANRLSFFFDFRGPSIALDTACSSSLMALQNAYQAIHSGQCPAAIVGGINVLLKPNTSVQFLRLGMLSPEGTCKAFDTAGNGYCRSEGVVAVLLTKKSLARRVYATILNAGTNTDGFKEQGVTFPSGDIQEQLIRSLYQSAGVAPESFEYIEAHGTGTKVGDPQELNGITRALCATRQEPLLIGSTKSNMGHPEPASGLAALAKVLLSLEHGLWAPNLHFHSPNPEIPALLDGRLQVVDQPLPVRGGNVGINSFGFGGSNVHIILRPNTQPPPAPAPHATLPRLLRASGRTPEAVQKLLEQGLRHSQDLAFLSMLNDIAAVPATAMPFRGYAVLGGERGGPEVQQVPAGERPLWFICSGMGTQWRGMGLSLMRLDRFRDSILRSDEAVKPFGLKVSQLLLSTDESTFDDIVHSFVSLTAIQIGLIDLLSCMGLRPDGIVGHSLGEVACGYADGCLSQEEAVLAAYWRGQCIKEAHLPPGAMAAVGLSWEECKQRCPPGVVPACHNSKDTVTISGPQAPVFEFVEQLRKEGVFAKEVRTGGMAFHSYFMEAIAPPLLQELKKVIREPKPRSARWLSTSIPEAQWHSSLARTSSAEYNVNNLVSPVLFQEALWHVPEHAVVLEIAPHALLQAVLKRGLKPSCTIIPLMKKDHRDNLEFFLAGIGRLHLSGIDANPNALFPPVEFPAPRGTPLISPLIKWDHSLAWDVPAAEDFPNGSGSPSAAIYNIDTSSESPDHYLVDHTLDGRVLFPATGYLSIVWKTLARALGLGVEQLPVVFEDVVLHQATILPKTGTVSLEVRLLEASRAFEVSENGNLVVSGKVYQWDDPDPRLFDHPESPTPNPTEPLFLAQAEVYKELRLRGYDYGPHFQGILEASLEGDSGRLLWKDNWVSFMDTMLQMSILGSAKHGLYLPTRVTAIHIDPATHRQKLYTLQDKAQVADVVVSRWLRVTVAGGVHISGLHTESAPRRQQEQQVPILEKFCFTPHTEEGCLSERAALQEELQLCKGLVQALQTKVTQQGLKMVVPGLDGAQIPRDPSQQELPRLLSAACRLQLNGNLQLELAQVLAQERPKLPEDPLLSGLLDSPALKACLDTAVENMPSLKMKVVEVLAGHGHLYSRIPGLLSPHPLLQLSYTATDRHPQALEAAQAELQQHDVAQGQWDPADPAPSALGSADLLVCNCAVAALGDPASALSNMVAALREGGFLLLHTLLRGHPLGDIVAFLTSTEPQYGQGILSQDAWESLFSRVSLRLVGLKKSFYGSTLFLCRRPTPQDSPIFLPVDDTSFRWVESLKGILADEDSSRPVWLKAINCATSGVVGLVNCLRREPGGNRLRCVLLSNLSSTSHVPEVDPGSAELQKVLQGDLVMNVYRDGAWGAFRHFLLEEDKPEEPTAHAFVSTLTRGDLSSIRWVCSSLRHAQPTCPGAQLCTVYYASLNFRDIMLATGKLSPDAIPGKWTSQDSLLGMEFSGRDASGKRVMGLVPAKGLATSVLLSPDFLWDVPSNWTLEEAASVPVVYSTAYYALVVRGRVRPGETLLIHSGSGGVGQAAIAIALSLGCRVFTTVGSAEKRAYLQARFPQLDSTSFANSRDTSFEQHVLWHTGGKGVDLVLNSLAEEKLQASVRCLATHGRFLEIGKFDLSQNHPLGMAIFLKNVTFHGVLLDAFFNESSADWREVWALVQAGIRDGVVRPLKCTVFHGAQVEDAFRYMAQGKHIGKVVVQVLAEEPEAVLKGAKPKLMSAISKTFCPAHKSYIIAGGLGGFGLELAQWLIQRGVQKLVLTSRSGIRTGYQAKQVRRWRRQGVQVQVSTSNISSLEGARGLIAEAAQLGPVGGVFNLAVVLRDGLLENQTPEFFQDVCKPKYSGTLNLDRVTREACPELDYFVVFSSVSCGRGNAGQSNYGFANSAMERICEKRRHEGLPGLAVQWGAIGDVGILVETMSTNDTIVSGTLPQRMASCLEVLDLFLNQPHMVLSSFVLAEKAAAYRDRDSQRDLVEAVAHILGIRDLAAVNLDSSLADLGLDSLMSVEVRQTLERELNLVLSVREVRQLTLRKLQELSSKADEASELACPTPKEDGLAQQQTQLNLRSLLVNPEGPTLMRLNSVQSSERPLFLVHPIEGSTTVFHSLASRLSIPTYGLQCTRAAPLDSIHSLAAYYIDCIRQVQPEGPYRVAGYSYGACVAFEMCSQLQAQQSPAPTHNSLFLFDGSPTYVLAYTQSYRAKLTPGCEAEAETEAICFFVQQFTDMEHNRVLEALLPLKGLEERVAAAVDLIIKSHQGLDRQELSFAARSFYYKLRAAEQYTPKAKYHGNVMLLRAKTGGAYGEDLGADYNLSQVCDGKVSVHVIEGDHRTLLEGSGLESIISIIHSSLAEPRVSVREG

O=C(CSc1ccc([N+](=O)[O-])cn1)Nc1ccc2c(c1)OCCO2
IC50 [1]: 4.17 µM (active) | IC50 [2]: 1.51 µM (active)

CN(CCOc1ccccc1)CC(=O)Nc1ccc([N+](=O)[O-])cc1Cl
IC50 [1]: 12.7 µM (active) | IC50 [2]: 9.54 µM (active)

NC(=O)c1ccsc1NC(=O)COC(=O)Cc1ccsc1
IC50 [3]: 1.84 µM (not active) | IC50 [4]: 5.55 µM (active)

COc1ccc2ccc3c(c2c1)N=CC1(O3)N(C)c2ccccc2C1(C)C (centres undefined)
IC50 [5]: > 50 µM (not active) | AC50 [6]: 2.96 µM (active) | EC50 [7]: 36.2 µM (active)

CCCc1nn(-c2ccccc2)c2c1C(c1cccs1)C(C#N)=C(N)O2 (centres undefined)
AC50 [6]: 12.6 µM (active) | IC50 [8]: > 80 µM (inactive) | EC50 [7]: 3.58 µM (active)

CCOC(=O)c1c(-c2cccs2)csc1N
IC50 [5]: > 50 µM (not active)

O=C(/C=C/c1ccccc1)N1CCN(c2cccc(Cl)n2)CC1
IC50 [8]: > 80 µM (inactive)

CCC(C)[C@H]1CN=C(N)N1CCc1cccc2ccccc12 (some centres undefined)
CC50 [9]: 15.8 µM (active) | IC50 [10]: 22.5 µM (active) | IC50 [11]: > 20 µM (inactive) | IC50 [12]: 6.06 µM (active)

C[C@@H]1CN([C@H](C)CO)C(=O)c2cc(NC(=O)Nc3ccc(C(F)(F)F)cc3)ccc2O[C@H]1CN(C)S(=O)(=O)c1ccccc1
AC50 [13]: 7.36 µM (active)

COc1cccc(-c2[nH]nc3c2C(c2ccoc2)C(C#N)=C(N)O3)c1 (centres undefined)
AC50 [6]: 8.72 µM (active) | IC50 [14]: 76.8 µM (active) | EC50 [7]: 1.07 µM (active) | IC50 [3]: > 50 µM (not active) | IC50 [4]: 20 µM (active)

Nc1c(-c2cccc(Cl)c2)cnn1-c1cccc([N+](=O)[O-])c1
IC50 [1]: 12 µM (active) | IC50 [2]: 11 µM (active)

Cc1ccc(S(=O)(=O)N(C)C[C@@H]2Oc3cc(Br)ccc3S(=O)(=O)N([C@H](C)CO)C[C@@H]2C)cc1
AC50 [15]: 7.1 µM (active) | AC50 [16]: 26.6 µM (active) | AC50 [17]: 4.58 µM (active)

O=C(c1cc(COc2cccc(C(F)(F)F)c2)on1)N1C[C@@H]2CCC[C@H]1C2
IC50 [1]: 10.7 µM (active) | IC50 [2]: 12.4 µM (active)

COc1ccc(/C=C(\C#N)C(=O)Nc2cc(S(=O)(=O)N3CCOCC3)ccc2N2CCCC2)cc1
IC50 [8]: > 80 µM (inactive)

CCc1ccc2oc(C(=O)N3CCN(c4ccccc4OC)CC3)cc(=O)c2c1
IC50 [8]: > 80 µM (inactive)

CCOC(=O)COc1ccc2c(C#N)c3ccccn3c2c1
IC50 [5]: > 50 µM (not active) | IC50 [18]: > 66 µM (inactive) | IC50 [19]: > 66 µM (inactive)

C[C@H]1CN([C@@H](C)CO)C(=O)c2cc(NC(=O)Cc3cn(C)c4ccccc34)ccc2O[C@H]1CN(C)Cc1ccc(-c2ccccc2)cc1
AC50 [13]: 3.27 µM (active)

C[C@@H]1CCCCO[C@@H](CN(C)Cc2ccc(Cl)c(Cl)c2)[C@@H](C)CN([C@H](C)CO)C(=O)c2cc(NC(=O)C3CCCCC3)ccc2O1
AC50 [13]: 2.9 µM (active)

Nc1ccc2c(c1)OC1(CCCCC1)O2
IC50 [5]: > 50 µM (not active)

C[C@@H]1CN([C@@H](C)CO)C(=O)c2cc(NS(=O)(=O)c3ccc(Cl)cc3)ccc2O[C@@H]1CN(C)Cc1ccc(-c2ccccc2)cc1
AC50 [13]: 3.31 µM (active)

COc1cc(/C=N/NC(=O)c2cc3ccccc3cc2O)ccc1OCCN1CCCCC1
IC50 [5]: > 50 µM (not active) | CC50 [20]: > 40 µM (active)

COc1ccc(-c2nn(CCC#N)cc2C(=O)Nc2ccc(C(C)=O)cc2)cc1[N+](=O)[O-]
IC50 [1]: 4.1 µM (active) | IC50 [2]: 1.41 µM (active)
